Measurements taken from ChEMBL document CHEMBL3120155, “4,4'-Diaminodiphenyl ether derivatives: synthesis, spectral, optical, thermal characterization and in-vitro cytotoxicity against Hep 3B and IMR 32 human cell lines” (Eur J Med Chem, 2014).
In brackets after ≈: the same amount, converted by molar mass. Activity calls are given as the source filed them. No cut-off for these calls is given here.

What was measured:
[1] = Cytotoxicity against human Hep3B cells after 6 hrs by MTT assay; type: functional, cell-based, Hep 3B2
[2] = Cytotoxicity against human IMR32 cells after 6 hrs by MTT assay; type: functional, cell-based; conditions: IMR-32, 6 h
IMR-32 [3] = assay: Induction of apoptosis in human IMR32 cells assessed as DNA fragmentation at IC50 after 6 hrs by agarose gel electrophoresis; type: functional, cell-based
Hep 3B2 [4] = assay: Induction of apoptosis in human Hep3B cells assessed as DNA fragmentation at IC50 after 6 hrs by agarose gel electrophoresis; type: functional, cell-based
IMR-32 [5] = assay: Induction of apoptosis in human IMR32 cells assessed as cell shrinkage at IC50 after 6 hrs by microscopic analysis; type: functional, cell-based
Hep 3B2 [6] = assay: Induction of apoptosis in human Hep3B cells assessed as cell shrinkage at IC50 after 6 hrs by microscopic analysis; type: functional, cell-based

SMILES: C(=N\c1ccc(Oc2ccc(/N=C/c3cc4ccccc4c4ccccc34)cc2)cc1)/c1cc2ccccc2c2ccccc12
- IC50 [1]: 44.7 µg/mL (≈ 77.5 µM)
- IC50 [2]: 63.1 µg/mL (≈ 109 µM)

SMILES: c1ccc(CNc2ccc(Oc3ccc(NCc4ccccc4)cc3)cc2)cc1
- Activity (IMR-32 [3]): Active
- Activity (Hep 3B2 [4]): Active
- IC50 [1]: 28.2 µg/mL (≈ 74.1 µM)
- IC50 [2]: 31.9 µg/mL (≈ 83.9 µM)

SMILES: c1ccc2c(CNc3ccc(Oc4ccc(NCc5c6ccccc6cc6ccccc56)cc4)cc3)c3ccccc3cc2c1
- IC50 [1]: 50.1 µg/mL (≈ 86.3 µM)
- IC50 [2]: 65 µg/mL (≈ 112 µM)

SMILES: C(=N\c1ccc(Oc2ccc(/N=C/c3cccc4ccccc34)cc2)cc1)/c1cccc2ccccc12
- Activity (IMR-32 [3]): Active
- Activity (Hep 3B2 [4]): Active
- Activity (IMR-32 [5]): Active
- IC50 [1]: 14.1 µg/mL (≈ 29.6 µM)
- IC50 [2]: 33.5 µg/mL (≈ 70.3 µM)
- Activity (Hep 3B2 [6]): Active

SMILES: C(=N\c1ccc(Oc2ccc(/N=C/c3c4ccccc4cc4ccccc34)cc2)cc1)/c1c2ccccc2cc2ccccc12
- IC50 [1]: 59.6 µg/mL (≈ 103 µM)
- IC50 [2]: 50.3 µg/mL (≈ 87.3 µM)

SMILES: C(=N\c1ccc(Oc2ccc(/N=C/c3ccccc3)cc2)cc1)/c1ccccc1
- IC50 [1]: 29.8 µg/mL (≈ 79.3 µM)
- IC50 [2]: 42.9 µg/mL (≈ 114 µM)

SMILES: Nc1ccc(Oc2ccc(N)cc2)cc1
- IC50 [1]: 83.2 µg/mL (≈ 415 µM)
- IC50 [2]: 54.5 µg/mL (≈ 272 µM)

SMILES: c1ccc2c(CNc3ccc(Oc4ccc(NCc5cccc6ccccc56)cc4)cc3)cccc2c1
- IC50 [1]: 89.1 µg/mL (≈ 185 µM)
- IC50 [2]: 89.1 µg/mL (≈ 185 µM)
